Assay results: DBAASP
In brackets after ≈: the same amount, converted by molar mass.

Columns and labels:
Test in all cases: ≥ marks a high value that may be exact or a test limit, other limits are often not marked, values filed in µg/mL are converted to µM
[1] = test system: Staphylococcus aureus II ATCC 6538P
Escherichia coli D21 = test system: Escherichia coli D21
[2] = test system: Enterobacter cloacae ATCC 49141
[3] = test system: Enterococcus faecalis ATCC 19433
[4] = test system: Escherichia coli ATCC 25922
[5] = test system: Acinetobacter baumannii ATCC 19606
[6] = test system: Pseudomonas aeruginosa ATCC 27853
Mannheimia haemolytica = test system: Mannheimia haemolytica
Histophilus somni = test system: Histophilus somni
Pasteurella multocida = test system: Pasteurella multocida
[7] = test system: Glaesserella parasuis ATCC 19417
Glaesserella parasuis = test system: Glaesserella parasuis
[8] = test system: Staphylococcus aureus FDA 209P
[9] = test system: Escherichia coli IFO 3972
[10] = test system: Fusarium oxysporum DSM Z62306
[11] = test system: Botrytis cinerea DSM Z877
[12] = test system: Enterococcus faecalis ATCC 29212
[13] = test system: Klebsiella pneumoniae ATCC 700603
Pseudomonas aeruginosa = test system: Pseudomonas aeruginosa
Staphylococcus aureus 37 = test system: Staphylococcus aureus 37
[14] = test system: Candida albicans ATCC 2002
Staphylococcus aureus 10 = test system: Staphylococcus aureus 10
Escherichia coli 117 = test system: Escherichia coli 117
[15] = test system: Staphylococcus aureus ATCC 25923
Escherichia coli 37 = test system: Escherichia coli 37
[16] = test system: Pseudomonas aeruginosa CMCCB 1010
[17] = test system: Candida albicans ATCC 90028
Bacillus subtilis = test system: Bacillus subtilis
Escherichia coli = test system: Escherichia coli
Candida albicans = test system: Candida albicans
Staphylococcus aureus = test system: Staphylococcus aureus
Pseudomonas putida = test system: Pseudomonas putida
Saccharomyces cerevisiae = test system: Saccharomyces cerevisiae
Cryptococcus neoformans = test system: Cryptococcus neoformans
Salmonella typhimurium = test system: Salmonella typhimurium
Serratia sp. = test system: Serratia sp.
Streptococcus mutans = test system: Streptococcus mutans
[18] = test system: Acinetobacter baumannii KCTC 2508
Acinetobacter baumannii = test system: Acinetobacter baumannii
[19] = test system: Staphylococcus aureus ATCC 29213
[20] = test system: Candida albicans ATCC 37092

Question: With `CC(C)C[C@H](NC(=O)[C@H](Cc1cnc[nH]1)NC(=O)[C@H](Cc1cnc[nH]1)NC(=O)[C@H](CC(C)C)NC(=O)[C@H](CC(C)C)NC(=O)[C@H](Cc1cnc[nH]1)NC(=O)[C@H](Cc1cnc[nH]1)NC(=O)[C@H](CC(C)C)NC(=O)[C@H](CC(C)C)NC(=O)[C@H](Cc1cnc[nH]1)NC(=O)[C@H](Cc1cnc[nH]1)NC(=O)[C@H](CC(C)C)NC(=O)[C@H](C)NC(=O)[C@H](CC(=O)O)NC(=O)[C@@H](N)CC(=O)O)C(=O)O` [DDALHHLLHHLLHHL] as the molecule, how does the MIC [1] read?
Answer: ≥ 100 µM

Question: What about the MIC (Escherichia coli D21) of the same molecule?
Answer: ≥ 100 µM

Question: And the MIC [2]?
Answer: ≥ 100 µM

Question: And the MIC [3]?
Answer: ≥ 100 µM

Question: What about the MIC [4] of the same molecule?
Answer: > 100 µM

Question: And the MIC [5]?
Answer: > 100 µM

Question: And the MIC [6]?
Answer: 100 µM (≈ 182 µg/mL)

Question: Which results are given for `CC[C@H](C)[C@@H]1NC(=O)CNC(=O)[C@H](CCCCN)NC(=O)[C@H](CC(N)=O)NC(=O)[C@H](CCCN=C(N)N)NC(=O)[C@H](C(C)C)NC(=O)[C@@H](NC(=O)[C@H](CO)NC(=O)[C@@H](NC(=O)[C@@H]2CCCN2C(=O)[C@@H](N)CC(N)=O)C(C)C)CSSC[C@@H]2NC(=O)[C@H](CCCCN)NC(=O)[C@H](C(C)C)NC(=O)[C@H](C)NC(=O)[C@H](CCCN=C(N)N)NC(=O)CNC(=O)[C@H](C(C)C)NC(=O)[C@@H]3CSSC[C@H](NC1=O)C(=O)N[C@@H](C(C)C)C(=O)N1CCC[C@H]1C(=O)N[C@@H]([C@@H](C)CC)C(=O)N[C@@H](CCCN=C(N)N)C(=O)N[C@@H](CSSC[C@@H](C(=O)N[C@@H](CCCN=C(N)N)C(=O)N[C@@H](CCCCN)C(=O)N[C@@H](CCCCN)C(=O)O)NC2=O)C(=O)N1CCC[C@H]1C(=O)NCC(=O)N[C@@H](CC(N)=O)C(=O)N[C@@H](CCSC)C(=O)N[C@@H](CCCCN)C(=O)N[C@@H](CCC(N)=O)C(=O)N[C@@H]([C@@H](C)CC)C(=O)NCC(=O)N[C@@H]([C@@H](C)O)C(=O)N3` [NPVSCVRNKGICVPIRCPGNMKQIGTCVGRAVKCCRKK]?
Answer: MIC (Mannheimia haemolytica): 0.753 µM (≈ 3.1 µg/mL); MIC (Histophilus somni): 1.14 µM (≈ 4.69 µg/mL); MIC (Pasteurella multocida): 0.558 µM (≈ 2.3 µg/mL)

Question: How did the MIC [7] turn out when `C[C@H](NC(=O)[C@H](Cc1ccccc1)NC(=O)[C@H](CS)NC(=O)[C@H](Cc1c[nH]c2ccccc12)NC(=O)[C@H](CCCN=C(N)N)NC(=O)[C@@H](N)CC(N)=O)C(=O)NCC(=O)N[C@@H](CC(=O)O)C(=O)N[C@@H](CC(=O)O)C(=O)O` [NRWCFAGDD] was run?
Answer: 18.5 µM (≈ 20 µg/mL)

Question: And the MIC (Glaesserella parasuis)?
Answer: 13.1 µM (≈ 14.1 µg/mL)

Question: For `CC(C)C[C@H](NC(=O)[C@H](Cc1c[nH]c2ccccc12)NC(=O)[C@@H](NC(=O)[C@H](Cc1c[nH]c2ccccc12)NC(=O)[C@H](Cc1cnc[nH]1)NC(=O)[C@@H](N)Cc1c[nH]c2ccccc12)[C@@H](C)O)C(=O)O` [WHWTWL], which MIC [8] is on record?
Answer: ≥ 500 µM

Question: And the MIC [9]?
Answer: ≥ 500 µM

Question: Which results are given for `CSCC[C@H](NC(=O)[C@@H](NC(=O)[C@@H](NC(=O)[C@H](CCCCN)NC(=O)[C@H](C)N)C(C)C)[C@@H](C)O)C(=O)N[C@H](C(=O)N[C@@H](CS)C(=O)N[C@@H](CO)C(=O)N[C@@H](C)C(=O)N[C@@H](CO)C(=O)O)[C@@H](C)O` [AKVTMTCSAS]?
Answer: MIC [10]: ≥ 100 µM; MIC [11]: ≥ 120 µM

Question: For `CC[C@H](C)[C@H](N)C(=O)N[C@@H](CC(N)=O)C(=O)N[C@@H](CC(C)C)C(=O)N[C@@H](CCCCN)C(=O)N[C@@H](C)C(=O)N[C@H](C(=O)N[C@@H](C)C(=O)N[C@@H](C)C(=O)N[C@@H](CC(C)C)C(=O)N[C@@H](C)C(=O)N[C@@H](CCCN=C(N)N)C(=O)N[C@@H](CC(N)=O)C(=O)N[C@@H](Cc1ccc(O)cc1)C(=O)O)[C@@H](C)CC` [INLKAIAALARNY], which MIC [12] is on record?
Answer: 3.49 µM (≈ 5 µg/mL)

Question: What about the MIC [13] of the same molecule?
Answer: 55.9 µM (≈ 80 µg/mL)

Question: What about the MIC (Pseudomonas aeruginosa) of the same molecule?
Answer: 6.99 µM (≈ 10 µg/mL)

Question: What about the MIC (Staphylococcus aureus 37) of the same molecule?
Answer: 6.99 µM (≈ 10 µg/mL)

Question: What about the MIC [14] of the same molecule?
Answer: ≥ 55.9 µM

Question: And the MIC (Staphylococcus aureus 10)?
Answer: 28 µM (≈ 40 µg/mL)

Question: What about the MIC (Escherichia coli 117) of the same molecule?
Answer: 28 µM (≈ 40 µg/mL)

Question: What about the MIC [15] of the same molecule?
Answer: 6.99 µM (≈ 10 µg/mL)

Question: What about the MIC (Escherichia coli 37) of the same molecule?
Answer: ≥ 55.9 µM

Question: What about the MIC [16] of the same molecule?
Answer: ≥ 55.9 µM

Question: And the MIC [17]?
Answer: 14 µM (≈ 20 µg/mL)

Question: And the MIC [6]?
Answer: 55.9 µM (≈ 80 µg/mL)

Question: `CC[C@H](C)[C@H](NC(=O)[C@H](CO)NC(=O)[C@H](CCCCN)NC(=O)[C@H](Cc1ccccc1)NC(=O)[C@H](CCCCN)NC(=O)[C@H](CCCCN)NC(=O)[C@H](CC(C)C)NC(=O)[C@@H]1CCCN1C(=O)[C@@H](NC(=O)[C@H](CCCCN)NC(=O)[C@@H](NC(=O)[C@@H](NC(=O)[C@H](C)N)C(C)C)C(C)C)C(C)C)C(=O)N[C@@H](CCCN=C(N)N)C(=O)N[C@@H](CCC(=O)O)C(=O)O` [AVVKVPLKKFKSIRE] was tested. Which MIC (Bacillus subtilis) did it give?
Answer: 11.5 µM (≈ 20 µg/mL)

Question: What about the MIC (Escherichia coli) of the same molecule?
Answer: 28.7 µM (≈ 50 µg/mL)

Question: What about the MIC (Candida albicans) of the same molecule?
Answer: 57.4 µM (≈ 100 µg/mL)

Question: What about the MIC (Staphylococcus aureus) of the same molecule?
Answer: 28.7 µM (≈ 50 µg/mL)

Question: And the MIC (Pseudomonas putida)?
Answer: ≥ 57.4 µM

Question: And the MIC (Saccharomyces cerevisiae)?
Answer: 5.74 µM (≈ 10 µg/mL)

Question: What about the MIC (Cryptococcus neoformans) of the same molecule?
Answer: 23 µM (≈ 40 µg/mL)

Question: What about the MIC (Salmonella typhimurium) of the same molecule?
Answer: 17.2 µM (≈ 30 µg/mL)

Question: And the MIC (Serratia sp.)?
Answer: 28.7 µM (≈ 50 µg/mL)

Question: And the MIC (Streptococcus mutans)?
Answer: 17.2 µM (≈ 30 µg/mL)

Question: `CC[C@H](C)[C@H](NC(=O)CNC(=O)[C@H](CC(C)C)NC(=O)[C@H](CCCN=C(N)N)NC(=O)[C@H](CCCCN)NC(=O)[C@H](Cc1ccccc1)NC(=O)[C@@H](NC(=O)[C@H](CCCCN)NC(=O)[C@H](CCCCN)NC(=O)[C@H](C)N)C(C)C)C(=O)NCC(=O)N[C@@H](CCCCN)C(=O)N[C@@H](Cc1ccccc1)C(=O)N[C@@H](CC(C)C)C(=O)N[C@@H](Cc1cnc[nH]1)C(=O)N[C@@H](CO)C(=O)N[C@@H](C)C(=O)N[C@@H](CCCCN)C(=O)N[C@@H](CCCCN)C(=O)N[C@@H](Cc1ccccc1)C(N)=O` [AKKVFKRLGIGKFLHSAKKF] was tested. Which MIC [18] did it give?
Answer: 6.25 µM (≈ 14.4 µg/mL)

Question: What about the MIC (Acinetobacter baumannii) of the same molecule?
Answer: 6.25 µM (≈ 14.4 µg/mL)

Question: Which results are given for `CC(C)C[C@H](NC(=O)[C@@H]1CCCN1C(=O)[C@H](CCCN=C(N)N)NC(=O)[C@@H]1CCCN1)C(=O)N1CCC[C@H]1C(=O)N[C@@H](Cc1ccccc1)C(=O)N1CCC[C@H]1C(=O)N[C@@H](CCCN=C(N)N)C(=O)N1CCC[C@H]1C(=O)NCC(=O)O` [PRPLPFPRPG]?
Answer: MIC [19]: > 500 µM; MIC [20]: ≥ 500 µM; MIC [4]: > 500 µM
